From the NIST ThermoML archive (doi:10.1016/j.jct.2015.11.028)
± gives the expanded uncertainty stated by the source.

Experiment: mn = molality of the nth substance listed, in mol/kg
Settings: 298.15 K, 100 kPa, Liquid, Vibrating tube method

mass density (m1 = 0.5) [kg/m3] | mass density (m1 = 1.5) [kg/m3] | mass density (m1 = 2) [kg/m3] | mass density (m1 = 2.499) [kg/m3] | Compound | also measured
1035.42 ± 0.11 | 1107.94 ± 0.13 | 1142.48 ± 0.14 |  | [Br-].[Na+] [sodium bromide] + O | mass density (m1 = 0.9999): 1072.67 ± 0.12 kg/m3; mass density (m1 = 2.5): 1175.65 ± 0.14 kg/m3; mass density (m1 = 2.999): 1207.24 ± 0.15 kg/m3
 |  |  |  | C[N+](C)(C)C[C@H](O)CC(=O)[O-] [(R)-3-hydroxy-4-(trimethylammonio)butanoate] + O | mass density (m1 = 0.8817): 1023.6 ± 0.21 kg/m3
1019.83 ± 0.11 |  | 1081.48 ± 0.12 | 1100.25 ± 0.12 | [Cl-].[K+] [potassium chloride] + O | mass density (m1 = 0.9998): 1041.41 ± 0.11 kg/m3; mass density (m1 = 1.499): 1062.03 ± 0.12 kg/m3; mass density (m1 = 2.98): 1117.69 ± 0.13 kg/m3
 | 1054.74 ± 0.12 | 1072.27 ± 0.12 | 1089.16 ± 0.12 | [Cl-].[Na+] [sodium chloride] + O | mass density (m1 = 1): 1036.18 ± 0.11 kg/m3; mass density (m1 = 3): 1105.67 ± 0.13 kg/m3
